Assay results published in ChEMBL document CHEMBL4376858, “Structure-Activity Relationships of Novel Thiazole-Based Modafinil Analogues Acting at Monoamine Transporters” (J Med Chem, 2020).

Columns and labels:
[1] = target: Sodium-dependent serotonin transporter (Homo sapiens, UniProt P31645); assay type: cell-based, HEK293
Description: Inhibition of wild type human SERT expressed in HEK293 cells assessed as inhibition of [3H]-5HT reuptake preincubated for 5 mins followed by [3H]5HT addition and measured after 1 min by liquid scintillation counting analysis

[2] = target: Sodium-dependent dopamine transporter (Homo sapiens, UniProt Q01959); experiment: Inhibition of wild type human dopamine transporter expressed in HEK293 cells assessed as inhibition of [3H]dopamine reuptake preincubated for 5 mins followed by [3H]dopamine addition and measured after 1 min by liquid scintillation analysis; assay type: cell-based
[3] = target: Sodium-dependent noradrenaline transporter (Homo sapiens, UniProt P23975); experiment: Inhibition of wild type human NET expressed in HEK293 cells assessed as inhibition of [3H]-MPP+ reuptake preincubated for 5 mins followed by [3H]MPP+ addition and measured after 3 mins by liquid scintillation counting analysis; assay type: cell-based
Sequence of Sodium-dependent noradrenaline transporter (P23975 whole entry): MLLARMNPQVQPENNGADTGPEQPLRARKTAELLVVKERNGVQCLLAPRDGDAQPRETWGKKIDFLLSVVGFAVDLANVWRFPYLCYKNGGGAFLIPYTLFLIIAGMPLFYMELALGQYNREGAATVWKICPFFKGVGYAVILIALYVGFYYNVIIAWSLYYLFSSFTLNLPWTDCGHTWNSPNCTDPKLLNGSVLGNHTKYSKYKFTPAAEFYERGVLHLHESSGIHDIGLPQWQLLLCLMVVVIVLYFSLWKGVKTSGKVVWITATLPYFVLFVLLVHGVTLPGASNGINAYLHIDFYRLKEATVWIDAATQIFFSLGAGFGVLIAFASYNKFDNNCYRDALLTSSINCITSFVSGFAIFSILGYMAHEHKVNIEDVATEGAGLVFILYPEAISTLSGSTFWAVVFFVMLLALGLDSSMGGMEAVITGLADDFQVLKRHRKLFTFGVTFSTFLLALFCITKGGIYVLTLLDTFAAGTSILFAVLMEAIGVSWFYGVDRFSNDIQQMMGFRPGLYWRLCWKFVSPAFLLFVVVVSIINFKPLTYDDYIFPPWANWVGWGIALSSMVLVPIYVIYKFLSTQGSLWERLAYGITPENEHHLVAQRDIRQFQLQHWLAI

Sequence of Sodium-dependent dopamine transporter (Q01959 whole entry): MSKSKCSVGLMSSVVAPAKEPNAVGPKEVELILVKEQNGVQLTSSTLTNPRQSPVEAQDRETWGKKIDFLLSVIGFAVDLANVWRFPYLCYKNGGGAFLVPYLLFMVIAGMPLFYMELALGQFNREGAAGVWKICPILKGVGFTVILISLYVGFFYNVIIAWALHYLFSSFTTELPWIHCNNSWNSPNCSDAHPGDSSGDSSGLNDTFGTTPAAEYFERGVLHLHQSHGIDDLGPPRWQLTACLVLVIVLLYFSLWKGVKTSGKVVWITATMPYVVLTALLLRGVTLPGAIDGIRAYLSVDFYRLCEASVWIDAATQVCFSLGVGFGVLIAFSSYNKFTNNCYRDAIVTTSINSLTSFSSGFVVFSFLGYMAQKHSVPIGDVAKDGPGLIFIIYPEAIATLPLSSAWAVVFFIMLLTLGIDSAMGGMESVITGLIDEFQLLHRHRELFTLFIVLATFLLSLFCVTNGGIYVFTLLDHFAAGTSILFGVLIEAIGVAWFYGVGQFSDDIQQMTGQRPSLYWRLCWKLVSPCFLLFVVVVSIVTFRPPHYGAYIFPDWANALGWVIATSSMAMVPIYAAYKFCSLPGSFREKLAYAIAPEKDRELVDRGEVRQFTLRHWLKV
Sequence of Sodium-dependent serotonin transporter (P31645 whole entry): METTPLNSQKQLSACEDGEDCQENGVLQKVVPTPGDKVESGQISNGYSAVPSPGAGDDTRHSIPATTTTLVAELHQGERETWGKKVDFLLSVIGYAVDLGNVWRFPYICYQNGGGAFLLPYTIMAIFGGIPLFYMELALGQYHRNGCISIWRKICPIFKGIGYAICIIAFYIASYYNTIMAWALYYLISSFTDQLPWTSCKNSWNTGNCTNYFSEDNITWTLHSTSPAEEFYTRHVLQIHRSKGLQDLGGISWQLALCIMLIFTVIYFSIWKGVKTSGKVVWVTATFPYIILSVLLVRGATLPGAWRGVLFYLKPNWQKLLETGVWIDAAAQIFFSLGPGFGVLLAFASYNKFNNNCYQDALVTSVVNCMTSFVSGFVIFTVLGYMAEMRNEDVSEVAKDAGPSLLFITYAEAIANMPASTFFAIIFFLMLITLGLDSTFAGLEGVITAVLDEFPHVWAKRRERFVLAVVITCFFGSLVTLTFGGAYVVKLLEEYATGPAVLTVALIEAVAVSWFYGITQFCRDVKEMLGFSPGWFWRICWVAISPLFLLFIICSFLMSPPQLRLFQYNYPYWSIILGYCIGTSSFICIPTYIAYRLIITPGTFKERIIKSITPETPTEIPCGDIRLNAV

Row | SMILES | IC50 ([1]; hek293) | IC50 ([2]; read-out: IC50) [µM] | IC50 ([3]; hek293) | IC50 ([1]; read-out: IC50) [µM] | IC50 ([3]; read-out: IC50) [µM] | IC50 ([2]; hek293)
1 | Cc1nc(CC[S+]([O-])C(c2ccccc2)c2ccccc2)cs1 (stereo not drawn) | Not Active | 61.4 | Not Active | – | – | –
2 | COc1ccc([C@@H](c2ccccc2)[S@+]([O-])Cc2cncs2)cc1 | – | 36.3 | – | 24.7 | 261 | –
3 | Cc1nc(C[S+]([O-])C(c2ccccc2)c2ccccc2)c(C)s1 (stereo not drawn) | Not Active | 48.1 | Not Active | – | – | –
4 | [O-][S@+](Cc1cncs1)C(c1ccc(Cl)cc1)c1ccc(Cl)cc1 | Not Active | 37.8 | Not Active | – | – | –
5 | COc1ccc([C@H](c2ccccc2)[S@@+]([O-])Cc2cncs2)cc1 | Not Active | 3.8 | – | – | 196 | –
6 | COc1ccc(C(c2ccc(OC)cc2)[S+]([O-])Cc2cncs2)cc1 (stereo not drawn) | Not Active | 71.6 | Not Active | – | – | –
7 | [O-][S@@+](Cc1cncs1)C(c1ccc(Cl)cc1)c1ccc(Cl)cc1 | Not Active | 4.1 | – | – | 89.8 | –
8 | [O-][S@+](Cc1cncs1)[C@H](c1ccccc1)c1ccc(Br)cc1 | – | 4.7 | – | 29.7 | 22.7 | –
9 | Cc1ccc([C@@H](c2ccccc2)[S@@+]([O-])Cc2cncs2)cc1 | Not Active | 6 | Not Active | – | – | –
10 | CCCc1nc(C[S+]([O-])C(c2ccccc2)c2ccccc2)cs1 (stereo not drawn) | Not Active | 28.4 | Not Active | – | – | –
11 | [O-][S@@+](Cc1cncs1)[C@@H](c1ccccc1)c1ccc(Br)cc1 | Not Active | 1.6 | – | – | 566 | –
12 | Cc1nc(C)c(C[S+]([O-])C(c2ccccc2)c2ccccc2)s1 (stereo not drawn) | Not Active | 87.1 | Not Active | – | – | –
13 | [O-][S@+](Cc1cncs1)[C@@H](c1ccccc1)c1ccc(Cl)cc1 | Not Active | 33 | Not Active | – | – | –
14 | Cc1ccc(C(c2ccc(C)cc2)[S+]([O-])Cc2csc(C3CC3)n2)cc1 (stereo not drawn) | Not Active | – | Not Active | – | – | Not Active
15 | Cc1ncsc1C[S+]([O-])C(c1ccccc1)c1ccccc1 (stereo not drawn) | Not Active | 44.1 | Not Active | – | – | –
16 | Cc1ccc([C@H](c2ccccc2)[S@@+]([O-])Cc2cncs2)cc1 | Not Active | 3.3 | – | – | 164 | –
17 | [O-][S@+](Cc1cncs1)C(c1ccc(F)cc1)c1ccc(F)cc1 | Not Active | 22.5 | Not Active | – | – | –
18 | Cc1ncc(C[S+]([O-])C(c2ccccc2)c2ccccc2)s1 (stereo not drawn) | Not Active | 68.1 | Not Active | – | – | –
19 | [O-][S@@+](Cc1cncs1)[C@H](c1ccccc1)c1ccc(C(F)(F)F)cc1 | Not Active | 37.7 | Not Active | – | – | –
20 | [O-][S@@+](Cc1cncs1)[C@@H](c1ccccc1)c1ccc(Cl)cc1 | Not Active | 2.3 | – | – | 72 | –
21 | COc1ccc([C@@H](c2ccccc2)[S@@+]([O-])Cc2cncs2)cc1 | – | 12.2 | Not Active | 363 | – | –
22 | Cc1cnc(C[S+]([O-])C(c2ccccc2)c2ccccc2)s1 (stereo not drawn) | Not Active | 65.6 | Not Active | – | – | –
23 | Cc1nc(C[S+]([O-])C(c2ccccc2)c2ccccc2)sc1C (stereo not drawn) | – | 33.3 | – | 201 | 107 | –
24 | [O-][S@@+](Cc1cncs1)[C@H](c1ccccc1)c1ccc(Br)cc1 | Not Active | 4.2 | – | – | 67.8 | –
25 | [O-][S@@+](Cc1cncs1)[C@H](c1ccccc1)c1ccc(F)cc1 | Not Active | 7.4 | – | – | 104 | –
26 | [O-][S+](Cc1cscn1)C(c1ccccc1)c1ccc(Br)cc1 (racemic) | Not Active | 1.85 | – | – | 109 | –
